This is an account of results in patent US20100190742A1, “COSMETIC/PHARMACEUTICAL COMPOSITIONS COMPRISING HYALURONIC ACID AND ADMINISTRATION THEREOF FOR REDUCING SIGNS OF AGING” (L'OREAL, priority 2007, published 2010).

In the test the test system is CD44. The test can be described thus: Expression of CD44 on cultured normal human skin explants, indirect immunoperoxidase histochemistry. In kind it is cell-based. The following applies: for Histochemical analysis of the CD44 receptor (semiquantitative scores), Mean ± sd n = 8: skin explants cultured 14 days. As to the method: CD44 is a transmembrane glycoprotein with a molecular weight of 80-95 kDa (CD44). The increase in the expression of this receptor at the surface of the cells of the skin improves the binding of hyaluronic acid, collagen and fibronectin. This binding makes possible in particular hydration of the dermis and epidermis.
Normal human skin fragments are obtained by plastic surgery and are deposited in culture plates. The skin explants are cultured for 14 days and compound A is added daily at 0.3 or 3 mM. At the end of culturing, the skin explants are fixed in Bouin's fluid and embedded in paraffin wax. Sections are produced and the receptor is visualized by a 3-layer indirect immunoperoxidase technique (ABC peroxidase kit, Vector Laboratories).
Histochemical analysis of the CD44 receptor (semiquantitative scores);

SMILES strings stand for the structures.

Take `CC(O)C[C@@H]1OC[C@@H](O)[C@H](O)[C@H]1O` (stereo partly drawn) [compound A, C-β-D-xylopyranoside-2-hydroxypropane]: the “activity on expression of CD44 (in words)” value is, setting by setting: (0.3 mM) “present”; (higher concentration (3 mM)) “again encountered”. Further, the “Histochemical analysis of the CD44 receptor (semiquantitative scores), Mean ± sd n = 8” value reads like this: (compound added daily at 0.3 mM) 2.30 ± 1.00; (compound added daily at 3.0 mM) 2.00 ± 1.10. Also, the “expression of CD44 (histological evaluation, in words)” value (skin explants treated daily for 14 days) was “significant increase”.
